Test results: PubChem BioAssay (NCI)
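In this assay, cells in 96-well plates receive the compound at five concentrations for 48 hours. Endpoints are linearly interpolated between the surrounding concentrations. GI50: concentration for 50% inhibition of growth. TGI: concentration producing complete growth inhibition.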

Columns and labels:
Assay in all cases: NCI anticancer screen, dose series, 48 h
[1] = test system: A498 renal
[2] = test system: A549 NSCLC
[3] = test system: COLO 205 colon
[4] = test system: HCC-2998 colon
[5] = test system: HCT-15 colon
[6] = test system: HOP-62 NSCLC
[7] = test system: HT29 colon
[8] = test system: M14 melanoma
[9] = test system: MALME-3M melanoma
[10] = test system: SK-MEL-5 melanoma

SMILES | TGI [1] | TGI [2] | TGI [3] | TGI [4] | TGI [5] | TGI [6] | TGI [7] | TGI [8] | TGI [9] | TGI [10] | GI50 [1] | GI50 [2] | GI50 [3] | GI50 [4] | GI50 [5] | GI50 [6] | GI50 [7] | GI50 [8] | GI50 [9] | GI50 [10]
Cc1cc(N(CCC#N)S(C)(=O)=O)ccc1C=O | > 100 µM | > 100 µM | > 100 µM | > 100 µM | > 100 µM | > 100 µM | > 100 µM | > 100 µM | > 100 µM | > 100 µM |  |  |  |  |  |  |  |  |  | 
CCC[CH2][Sn]([CH2]CCC)([O]C(=O)c1cc(F)cc(F)c1)[O]C(=O)c1cc(F)cc(F)c1 | 2.83 µM | 20.4 µM | 2.05 µM | 2 µM | 2.41 µM | 4.19 µM | 3.06 µM | 2.67 µM | 1.75 µM | 2.61 µM | 1.49 µM | 7.13 µM | 0.841 µM | 0.242 µM | 1.17 µM | 2.39 µM | 1.65 µM | 1.36 µM | 0.508 µM | 1.34 µM
NC(CSC(c1ccccc1)(c1ccccc1)c1ccc(Cl)cc1)C(=O)O (stereo not given) | 48.8 µM | > 62 µM | 0.768 µM | 2.77 µM | 52.9 µM | 20.5 µM | 6.92 µM | 0.132 µM | 39.6 µM | 14.1 µM | 0.746 µM | 0.468 µM | 0.256 µM | 0.276 µM | 0.362 µM | 0.714 µM | 0.347 µM | 0.0322 µM | 1.97 µM | 0.0612 µM
CCN(CC)CCCNc1cccc2c(SCc3ccccc3)ccnc12 | 4.98 µM | 3.33 µM | 3.44 µM | 3.2 µM | 3.82 µM | 3.05 µM | 2.3 µM | 3.6 µM | 4 µM | 3.08 µM | 1.92 µM | 1.73 µM | 1.84 µM | 1.73 µM | 1.72 µM | 1.61 µM | 0.907 µM | 1.96 µM | 2.13 µM | 1.68 µM
CCCN(CCCC(NC(C)=O)C(=O)NCc1ccccc1)C(=O)NC (stereo not given) | > 100 µM | > 100 µM | > 100 µM | > 100 µM | > 100 µM | > 100 µM | > 100 µM | > 100 µM | > 100 µM | > 100 µM |  |  |  |  |  |  |  |  |  | 
N/N=C1\C(=O)N(C2CCCCC2)C(=O)C1C(=O)NC1CCCCC1 (stereo not given) | > 100 µM | > 100 µM | > 100 µM | > 100 µM | > 100 µM | > 100 µM | > 100 µM | > 100 µM | > 100 µM | > 100 µM |  |  |  |  |  |  |  |  |  | 
COc1ccc(/C(=N/NC(=O)NN)C(c2ccc(OC)cc2)C2(O)CNc3c(Cl)cc(Cl)cc32)cc1 (stereo not given) | > 100 µM | > 100 µM | > 100 µM | > 100 µM | > 100 µM | > 100 µM | > 100 µM | > 100 µM | > 100 µM | > 100 µM |  |  |  |  |  |  |  |  |  | 
CCOC(=O)C(=O)Nc1c(F)cc(F)cc1Br | > 100 µM | > 100 µM | > 100 µM | > 100 µM | > 100 µM | > 100 µM | > 100 µM | > 100 µM | > 100 µM | > 100 µM |  |  |  |  |  |  |  |  |  | 
CCOC(=O)N1CCc2cc(OC)c(OC)c3c2C1CC3=O (stereo not given) | > 100 µM | > 100 µM | > 100 µM | > 100 µM | > 100 µM | > 100 µM | > 100 µM | > 100 µM | > 100 µM | > 100 µM |  |  |  |  |  |  |  |  |  | 
Cc1cc2cc3cc(C)c(N(C)C)cc3nc2cc1N(C)C | 26.2 µM | > 100 µM | 7.41 µM | 14.6 µM | > 100 µM | 19.9 µM | 23.8 µM | 18.4 µM | 19 µM | 4.71 µM | 4.32 µM | 3 µM | 1.84 µM | 3.61 µM | 12.1 µM | 5.08 µM | 1.55 µM | 3.76 µM | 3.53 µM | 1.73 µM
CC(C)C1OC(=O)C=C1Sc1ccccc1 (stereo not given) | > 100 µM | > 100 µM | > 100 µM | > 100 µM | > 100 µM | > 100 µM | > 100 µM | > 100 µM | > 100 µM | > 100 µM |  |  |  |  |  |  |  |  |  | 
C=C(C)[C@@H]1CC[C@]2(C)[C@H](C(=O)C=C3[C@@H]4C[C@](C)(C(=O)N5CCN(C)CC5)CC[C@]4(C)CC[C@]32C)[C@@]1(C)CCC#N | 14.9 µM | 14.5 µM | 13.4 µM | 13.6 µM | 10.9 µM | 13.3 µM | 8.49 µM | 14.1 µM | 10.6 µM | 13.9 µM | 7.77 µM | 7.12 µM | 5.78 µM | 6.72 µM | 4.2 µM | 6.33 µM | 2.38 µM | 6.86 µM | 3.94 µM | 7.3 µM
CC(C)CCOc1ccc(-c2n[nH]c(C(F)(F)F)c2-c2cncc(C#N)c2)c(O)c1 | 6.64 µM | 12 µM | 3.14 µM | 24.3 µM | 13.4 µM | 7.65 µM | 14.1 µM | 9.13 µM | 6.56 µM | 2.57 µM | 1.75 µM | 2.24 µM | 1.68 µM | 3.05 µM | 2.4 µM | 2.61 µM | 2.92 µM | 2.49 µM | 1.85 µM | 0.943 µM
Cc1nc2sccn2c(=O)c1CCN1CCC(=C(c2ccc(F)cc2)c2ccc(F)cc2)CC1 | 29.4 µM | 29.1 µM | 24.1 µM | 27.5 µM | 17.5 µM | 33.4 µM | 19 µM | 24.8 µM | 25.5 µM | 15 µM | 15.3 µM | 12.9 µM | 7.69 µM | 12.3 µM | 4.53 µM | 17.9 µM | 5.37 µM | 9.53 µM | 11.4 µM | 4.01 µM
